Our source for the RP-LC retention time values is the METLIN SMRT retention time set (Domingo-Almenara et al. 2019).

This data set is described as follows: gradient 5% acetonitrile 3 min, to 50% in 2 min, to 85% in 15 min, held 3 min, 100 µL/min. The following applies: column: Zorbax Extend-C18 2.1 x 50 mm; eluents: water / acetonitrile, 0.1% formic acid. An outline of the steps: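 Over 3 months, pure standards in mixtures of ~100 molecules were run by HPLC coupled to a quadrupole time-of-flight mass spectrometer in positive and negative ionization mode. The column was a Zorbax Extend-C18 (2.1 × 50 mm, 1.8 μm) at 100 μL/min, eluted with water and acetonitrile each holding 0.1% formic acid, with 40 μL dead and 900 μL dwell volumes. Retention time was determined from adduct peaks chosen by software and checked manually.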
`CNC(=O)C1CN(C(=O)Cc2ccc(C)cc2)CC12CCCC2` (centres undefined): the RP-LC retention time was 722 s. For `Cc1ccc(C(=O)N2CCN(c3nnc4cccc(C)n34)CC2)cc1C` the value was 705 s; for `O=C(c1cc(C2CC2)n(CC(=O)N(Cc2ccccc2)c2ccccn2)n1)N1CCOCC1`, 687 s; for `Cc1ccc(CN2C[C@@H]3C(=O)N(C)C(=O)[C@@H]3C2)cc1C`, 604 s. Regarding `CCOC(=O)C1=C(CN2CCCC(C(=O)OCC)C2)NC(=O)NC1c1ccc(C)cc1` (centres undefined), the RP-LC retention time was found to be 674 s. For `O=C(COc1ccccc1)N1CCC(c2noc(-c3ccncc3)n2)C1` (centres undefined) the value was 737 s. The molecule `CCOC(=O)C1CCN(c2cc3c(cc2NC(=O)NC(C)C)n(C)c(=O)n3C)CC1` had an RP-LC retention time of 713 s.

Molecule `O=C(Nc1cc(-c2ccccn2)no1)C1CCCC1` showed an RP-LC retention time of 765 s.

As to `O=C(O)c1ccc(NCc2nc3ccccc3[nH]2)cc1`, the RP-LC retention time turned out to be 896 s. For `CN1CC[C@@H](c2ccc(F)cc2)[C@H](COc2ccc3c(c2)OCO3)C1`, the RP-LC retention time is 766 s. `Cc1ccc(C)c(C(=O)N2CCC(c3cc4n(n3)CCCN(C)C4=O)CC2)c1` returned an RP-LC retention time of 690 s. The same measure for `COc1ccccc1-c1noc(C2CCCN2C(=O)NCc2ccco2)n1` (centres undefined): 761 s; for `CCn1c(N2CCCC(C(=O)NCc3ccc(F)cc3)C2)cc(=O)n(C)c1=O` (centres undefined): 776 s.

Molecule `Cn1c(=O)c(N2CCC(NC(=O)Nc3cccc(Br)c3)CC2)nc2ccccc21` came in with an RP-LC retention time of 965 s.

As to `COc1cccc(C2=NC3(CCN(C(C)=O)CC3)NC(c3cc(Br)ccc3O)C2)c1` (centres undefined), the RP-LC retention time amounted to 694 s.

In the case of `Cc1nc(CCNC(=O)C2CCN(S(=O)(=O)c3ccc(F)c(F)c3)CC2)cs1`, the RP-LC retention time came out at 724 s. The molecule `CCOc1ccc(S(=O)(=O)N2CCCC(C(=O)NCCOC)C2)cc1` (centres undefined) came in with an RP-LC retention time of 709 s. The same measure for `Cc1cccc(N2C(=O)CN(CCc3cccs3)[C@H]3CS(=O)(=O)C[C@H]32)c1`: 814 s.

`CCN1C(=O)c2cccnc2Sc2cc(NC(=O)c3ccc(OC)cc3)ccc21` registered an RP-LC retention time of 806 s. In the case of `Cc1ccn(CC(=O)N2CC(n3cc(COc4ccc(F)cc4)nn3)C2)n1`, the RP-LC retention time was 716 s. Molecule `CCc1nn(C)c(=O)c2cc(S(=O)(=O)N3CCC(Cc4ccccc4)CC3)cn12` registered an RP-LC retention time of 1050 s. As to `Clc1cccc(-c2nnc(Cc3nc(-c4ccccc4)no3)o2)c1`, the RP-LC retention time was found to be 1070 s.

`CCC(C)NC(=O)c1cn(-c2ccc(-c3nc(C(C)C)no3)cn2)cn1` (centres undefined) displayed an RP-LC retention time of 899 s. `COc1ccc(CCC(=O)NCCCn2cccc2)cc1` returned an RP-LC retention time of 757 s. `CCOC(=O)c1[nH]c(C)c(CCC(=O)N2CCC(C(=O)NCCCOC(C)C)CC2)c1C` yielded an RP-LC retention time of 706 s. The same measure for `CCCc1ccc(S(=O)(=O)N2CCC3(CC2)C(=O)N(CC)c2ccccc23)cc1`: 1160 s; for `Cc1nn(-c2nc(-c3ccc(Cl)cc3)cs2)c(C)c1CC(=O)N1CCCCCC1`: 793 s; for `Cn1c(=O)c2cc(C(=O)NCCc3ccncc3)nn2c2ccccc21`: 584 s. Molecule `O=C(c1ccsc1)N1CCCn2cc(-c3ccccc3F)nc21` came in with an RP-LC retention time of 673 s. The same measure for `Cc1ccc(S(=O)(=O)N2CCC(CCC(=O)NCc3cccc(C)c3)CC2)cc1`: 956 s.

In the case of `Cc1cc(OC(C)C(=O)N2CCC3(O)CCCCC3C2)c2c3c(c(=O)oc2c1)CCC3` (centres undefined), the RP-LC retention time was found to be 820 s.

`OC1(c2ccccc2)CN(c2ccccc2)C2=[N+]1CCS2` (centres undefined) returned an RP-LC retention time of 551 s. In turn, `CCN1CCCn2cc(S(=O)(=O)Nc3ccc(F)c(C)c3)cc2C1=O` gave an RP-LC retention time of 755 s. In the case of `CCOC(=O)c1cnc(Nc2nc(-c3ccccc3)c3ccccc3n2)nc1C`, the RP-LC retention time stood at 876 s.

Take `Cc1cc(=O)n(CC(=O)Nc2ccc(F)cc2)c(N)n1`: the RP-LC retention time is 592 s. `CC1CCN(C(=O)c2nnc(-c3ccc(S(=O)(=O)N4CCCC4)cc3)o2)CC1` yielded an RP-LC retention time of 952 s. The same measure for `O=C(NCc1ccc(F)cc1)C1CCN(c2cc(N3CCCCC3)ncn2)CC1`: 676 s. For `CCn1cc(S(=O)(=O)NCc2ccccc2C)c2cccnc21` the value was 853 s; for `O=C(NCc1ccc(F)cc1Cl)c1cn(-c2cc(N3CCOCC3)ncn2)cn1`, 840 s. `c1csc(Cc2nc(-c3ccc4c(c3)ncn4CCN3CCCCC3)no2)c1` showed an RP-LC retention time of 646 s. In the case of `CC1CCN(S(=O)(=O)c2cccc(-c3cn4cc(Cl)ccc4n3)c2)CC1`, the RP-LC retention time was 1000 s. The same measure for `CN1CCN(CC/C=C2/c3ccccc3Sc3ccc(S(=O)(=O)N(C)C)cc32)CC1`: 752 s; for `O=S(=O)(c1cccc2cccnc12)N1CCc2nc(-c3ccc(F)cc3)ncc2C1`: 1000 s. For `O=C(Nc1ccc2c(c1)N(C(=O)c1cccs1)CC2)c1ccc2c(c1)OCO2` the value was 843 s; for `COc1cc(OC)c(OC)cc1/C=C\c1ccnc2ccccc12`, 679 s. The same measure for `COCCN1CCC(N2CCN(C(=O)C3(c4ccccc4)CC3)CC2)C1=O` (centres undefined): 542 s; for `O=C(NCCc1ccccc1)N1CCCC(Cn2cnc3cccnc32)C1` (centres undefined): 635 s. For `Cc1cc(-c2nnc(-c3ccccc3)o2)c(C)n1CC(=O)Nc1ccc(F)cc1`, the RP-LC retention time amounted to 938 s. In the case of `O=C(NCCn1c(=O)n(Cc2ccc(F)cc2)c2cccnc21)c1ccc2c(c1)OCO2`, the RP-LC retention time was 778 s.

Turning to `CCCS(=O)(=O)N1CC(c2nnc(-c3ccncc3)o2)C2(CCOCC2)C1` (centres undefined), the RP-LC retention time was 625 s. For `Cc1ccc(N(C)S(=O)(=O)c2cc3n(c2)CCCN(C(C)C)C3=O)cc1` the value was 865 s; for `O=C(NCc1csc(-c2cccs2)n1)C1CCN(C(=O)CCc2ccccc2)CC1`, 805 s. For `O=C(OCc1cc(-c2cccs2)on1)c1ccc(Cn2ccnc2)cc1` the value was 600 s. The same measure for `O=C(NCc1ccc(N2CCOCC2)nc1)c1cccc(Br)c1`: 626 s.

`Cn1nc(-c2nc(C3CC3)no2)c2c1CCN(S(=O)(=O)c1ccccc1Cl)C2` registered an RP-LC retention time of 952 s. Turning to `CCOc1ccc(C2=NC3(CCN(C(C)C)CC3)NC(c3cccc(OC)c3O)C2)cc1` (centres undefined), the RP-LC retention time was determined as 608 s.

Turning to `Cc1cc(C(=O)Nc2nnc(-c3csc(C)n3)o2)c(C)o1`, the RP-LC retention time is 599 s.

Turning to `CCN1CCN(CCCNC(=O)C2CCCN(c3nnc(-n4cccc4)s3)C2)CC1` (centres undefined), the RP-LC retention time is 572 s.

Take `Cc1cccc2nc(-c3ccc(N4CCOCC4)cc3)c(Nc3ccc4c(c3)OCCO4)n12`: the RP-LC retention time stood at 664 s.
